Measured values as given in patent publication US20120220590A1, “NOVEL COMPOUNDS AS MODULATORS OF GLUCOCORTICOID RECEPTORS” (priority 2009, published 2012).

Experiments:
[1] = tested on: LPS-induced IL-6 secretion in U 937 cells; test: Modulation of proinflammatory cytokine production in U 937 cells (transrepression): IL-6; format: cell-based; conditions: Homo sapiens, U 937 cells stimulated with 5 μg/mL LPS, ELISA; for inhibition at 0.1 µM: 0.1 μM test compound; for inhibition at 1 µM: 1 μM test compound
Experimental: (§1) VI) Modulation of Proinflammatory Cytokine Production in U 937 Cells (Determination of Transrepression)
(§2) Testing of compounds in GR-mediated inhibition of LPS-induced TNFα, IL-1β, and IL-6 secretion in U 937 cells.
(§3) Differentiated U 937 cells are incubated for 2 days in RPMI1640 medium containing 10% CCS (charcoal treated calf serum). The cells are transferred to 96 well plates and stimulated with 5 μg/mL LPS (dissolved in PBS) in the presence or absence of dexamethasone or test compound (dissolved in DMSO, final concentration 0.2%). Control cells are treated with 0.2% DMSO. After required incubation periods, proinflammatory cytokine(s) concentrations in the cell supernatant are measured by ELISA, using the “BD OptEIA™ Set human TNF, BD OptEIA™ Set human IL-6, BD OptEIA™ Set human IL-1β.
(§4) TNF α inhibition induced by Dexamethasone at 10 nM concentration was considered as 100% and % inhibition of the test NCE was determined as compared to Dexamethasone. Dose-response curves are calculated by fitting to a non-linear 4-parameter logistic model, and absolute EC50 (or IC50) values for the determination of dissociation are derived from these curves and the corresponding curve for dexamethasone on the same experimental occasion.

[2] = tested on: LPS-induced TNFα secretion in U 937 cells; test: Modulation of proinflammatory cytokine production in U 937 cells (transrepression): TNFα; format: cell-based; conditions: Homo sapiens, U 937 cells stimulated with 5 μg/mL LPS, inhibition by Dexamethasone at 10 nM considered as 100%, read-out: % TNF α Inhibition; for inhibition at 0.1 µM: 0.1 μM test compound; for inhibition at 1 µM: 1 μM test compound
Experimental: as §1, §2, §3, §4

| Structure (SMILES) | inhibition at 0.1 µM [1] | inhibition at 1 µM [1] | inhibition at 0.1 µM [2] | inhibition at 1 µM [2] |
| --- | --- | --- | --- | --- |
| Cc1c(NS(C)(=O)=O)cccc1N(Cc1ccc(Oc2cc(OCCc3cccnc3)cc(C(N)=O)c2)cc1)Cc1ccc(C#N)c(F)c1 [Example 83, 3-(4-(((4-cyano-3-fluorobenzyl)(2-methyl-3-(methylsulfonamido)phenyl)amino)methyl)phenoxy)-5-(2-(pyridin-3-yl)ethoxy)benzamide] | 95.7% | 95.1% | 93.4% | 94.5% |
| CCS(=O)(=O)Nc1cccc(N(Cc2ccc(Oc3cccc(OCC4CCOC4)c3)cc2)Cc2cccc(C#N)c2)c1C (centres unmarked) [Example 16, N-(3-((3-cyanobenzyl)(4-(3-((tetrahydrofuran-3-yl)methoxy)phenoxy)benzyl)amino)-2-methylphenyl)ethanesulfonamide] | 62% | 81% | 63.2% | 87.4% |
| Cc1c(NS(C)(=O)=O)cccc1N(Cc1ccc(Oc2cccc(OCCc3cccnc3)c2)cc1)Cc1cccc(C#N)c1 [Example 62, N-(3-((3-cyanobenzyl)(4-(3-(2-(pyridin-3-yl)ethoxy)phenoxy)benzyl)amino)-2-methylphenyl)methanesulfonamide] | 68.4% | 90.8% | 52.6% | 83.7% |
| CCS(=O)(=O)Nc1cccc(N(Cc2ccc(Oc3cc(CO)cc(OCC4CCOC4)c3)cc2)Cc2cccc(C#N)c2)c1C (centres unmarked) [Example 86, N-(3-((3-cyanobenzyl)(4-(3-(hydroxymethyl)-5-((tetrahydrofuran-3-yl)methoxy)phenoxy)benzyl)amino)-2-methylphenyl)ethanesulfonamide] |  |  | 95.5% | 95.6% |
| Cc1c(NS(C)(=O)=O)cccc1N(Cc1ccc(C#N)cc1)Cc1ccc(Oc2cc(C#N)cc(OCCc3cccnc3)c2)cc1 [Example 84, N-(3-((4-(3-cyano-5-(2-(pyridin-3-yl)ethoxy)phenoxy)benzyl)(4-cyanobenzyl)amino)-2-methylphenyl)methanesulfonamide] | 95% | 94.9% | 94.6% | 93.7% |
| Cc1c(NS(C)(=O)=O)cccc1N(Cc1ccc(C#N)cc1)Cc1ccc(Oc2cc(OCCc3cccnc3)cc(C(N)=O)c2)cc1 [Example 75, 3-(4-(((4-cyanobenzyl)(2-methyl-3-(methylsulfonamido)phenyl)amino)methyl)phenoxy)-5-(2-(pyridin-3-yl)ethoxy)benzamide] | 98.2% | 100% | 75.3% | 100% |
| CCS(=O)(=O)Nc1cccc(N(Cc2ccc(C#N)cc2)Cc2ccc(Oc3cccc(OCc4ccoc4)c3)cc2)c1C [Example 20, N-(3-((4-cyanobenzyl)(4-(3-(furan-3-ylmethoxy)phenoxy)benzyl)amino)-2-methylphenyl)ethanesulfonamide] | 92.2% | 97.9% | 88.9% | 93.6% |
| CCS(=O)(=O)Nc1cccc(N(Cc2ccc(C#N)cc2)Cc2ccc(Oc3cc(CO)cc(OCc4cccnc4)c3)cc2)c1C [Example 85, N-(3-((4-cyanobenzyl)(4-(3-(hydroxymethyl)-5-(pyridin-3-ylmethoxy)phenoxy)benzyl)amino)-2-methylphenyl)ethanesulfonamide] |  |  | 88.5% | 91.2% |
| CCS(=O)(=O)Nc1cccc(N(Cc2ccc(Oc3cccc(OCCc4cccnc4)c3)cc2)Cc2cccc(C#N)c2)c1C [Example 60, N-(3-((3-cyanobenzyl)(4-(3-(2-(pyridin-3-yl)ethoxy)phenoxy)benzyl)amino)-2-methylphenyl)ethanesulfonamide] | 90% | 91.7% | 95.1% | 96.3% |
| Cc1c(NS(C)(=O)=O)cccc1N(Cc1ccc(C#N)cc1)Cc1ccc(Oc2cc(CO)cc(OCCc3cccnc3)c2)cc1 [Example 76, N-(3-((4-cyanobenzyl)(4-(3-(hydroxymethyl)-5-(2-(pyridin-3-yl)ethoxy)phenoxy)benzyl)amino)-2-methylphenyl)methanesulfonamide] | 85.7% | 88.8% | 87.6% | 86.2% |
| Cc1c(NS(C)(=O)=O)cccc1N(Cc1ccc(C#N)cc1)Cc1ccc(Oc2cccc(OCCc3cccs3)c2)cc1 [Example 35, N-(3-((4-cyanobenzyl)(4-(3-(2-(thiophen-2-yl)ethoxy)phenoxy)benzyl)amino)-2-methylphenyl)methanesulfonamide] | 28% | 54% | 41.8% | 83.4% |
| Cc1c(NS(C)(=O)=O)cccc1N(Cc1ccc(C#N)cc1)Cc1ccc(Oc2cccc(OCC3CCOC3)c2)cc1 (centres unmarked) [Example 58, N-(3-((4-cyanobenzyl)(4-(3-((tetrahydrofuran-3-yl)methoxy)phenoxy)benzyl)amino)-2-methylphenyl)methanesulfonamide] | 45% | 76% | 13.1% | 55% |
| Cc1c(NS(C)(=O)=O)cccc1N(Cc1ccccc1)Cc1ccc(Oc2cccc(OCCc3cccnc3)c2)cc1 [Example 78, N-(3-(benzyl(4-(3-(2-(pyridin-3-yl)ethoxy)phenoxy)benzyl)amino)-2-methylphenyl)methanesulfonamide] | 62% | 74% | 67.9% | 83.9% |
| Cc1c(NS(C)(=O)=O)cccc1N(Cc1ccc(Oc2cccc(OCC3CCOC3)c2)cc1)Cc1cccc(C#N)c1 (centres unmarked) [Example 55, N-(3-((3-cyanobenzyl)(4-(3-((tetrahydrofuran-3-yl)methoxy)phenoxy)benzyl)amino)-2-methylphenyl)methanesulfonamide] | 55% | 76% | 1.54% | -1.12% |
| Cc1c(NS(C)(=O)=O)cccc1N(Cc1ccc(C#N)cc1)Cc1ccc(Oc2cc(C#N)cc(OCC3CCOC3)c2)cc1 (centres unmarked) [Example 82, N-(3-((4-(3-cyano-5-((tetrahydrofuran-3-yl)methoxy)phenoxy)benzyl)(4-cyanobenzyl)amino)-2-methylphenyl)methanesulfonamide] | 60% | 83% | 50% | 71.1% |
| Cc1c(NS(C)(=O)=O)cccc1N(Cc1ccc(C#N)cc1)Cc1ccc(Oc2cc(CO)cc(OCc3cccnc3)c2)cc1 [Example 79, N-(3-((4-cyanobenzyl)(4-(3-(hydroxymethyl)-5-(pyridin-3-ylmethoxy)phenoxy)benzyl)amino)-2-methylphenyl)methanesulfonamide] | 97% | 97% | 87.7% | 88.2% |
| Cc1c(NS(C)(=O)=O)cccc1N(Cc1ccc(Oc2cc(CO)cc(OCC3CCOC3)c2)cc1)Cc1cccc(C#N)c1 (centres unmarked) [Example 80, N-(3-((3-cyanobenzyl)(4-(3-(hydroxymethyl)-5-((tetrahydrofuran-3-yl)methoxy)phenoxy)benzyl)amino)-2-methylphenyl)methanesulfonamide] |  |  | 84.1% | 86.5% |
| Cc1c(NS(C)(=O)=O)cccc1N(Cc1ccc(C#N)cc1)Cc1ccc(Oc2cc(CO)cc(OCC3CCOC3)c2)cc1 (centres unmarked) [Example 81, N-(3-((4-cyanobenzyl)(4-(3-(hydroxymethyl)-5-((tetrahydrofuran-3-yl)methoxy)phenoxy)benzyl)amino)-2-methylphenyl)methanesulfonamide] |  |  | 88.9% | 88.2% |
| CNC(=O)c1cc(OCCc2cccnc2)cc(Oc2ccc(CN(Cc3ccc(C#N)cc3)c3cccc(NS(C)(=O)=O)c3C)cc2)c1 [Example 74, 3-(4-(((4-cyanobenzyl)(2-methyl-3-(methylsulfonamido)phenyl)amino)methyl)phenoxy)-N-methyl-5-(2-(pyridin-3-yl)ethoxy)benzamide] | 100% | 100% | 90.4% | 100% |
